Data from US9029337B2, “Modulation of factor 7 expression” (Isis Pharmaceuticals, Inc., priority 2007, dated 2015).
Strand notation (5' to 3'): a small letter for the sugar, then the base; units joined by * are phosphorothioate-linked, units joined directly phosphodiester-linked; [ ] holds rarer units or linkages, { } end groups; capitals alone tell only the bases. e = 2'-O-(2-methoxyethyl) (MOE); [5mC] = 5-methylcytosine; d = 2'-deoxy (DNA)

Legend:
Format in all cases: cell-based
[1] = tested on: human Factor 7 mRNA; assay: Antisense inhibition of human Factor 7 with short (14-mer) oligonucleotides in HepB3 cells, electroporation 1,000 nM; details: electroporation, 1,000 nM antisense oligonucleotide, approximately 24 hours, Factor 7 mRNA relative to untreated control cells
From the text: Short antisense oligonucleotides (shortmers) were designed to target a Factor 7 nucleic acid. The shortmers in Table 17 were designed as 2-10-2 MOE gapmers. The gapmers are 14 nucleotides in length, wherein the central gap segment is comprised of 10 2′-deoxynucleotides and is flanked on both sides (in the 5′ and 3′ directions) by wings comprising 2 nucleotides each. Each nucleotide in the 5′ wing segment and each nucleotide in the 3′ wing segment has a 2′-MOE modification. The internucleoside linkages throughout each gapmer are phosphorothioate (P═S) linkages. All cytidine residues throughout each gapmer are 5-methylcytidines.
Shortmers were evaluated for their ability to reduce human Factor 7 mRNA in HepB3 cells and compared with one 5-10-5 chimeric oligonucleotide from Table 16, ISIS 407939. HepB3 cells at a density of 20,000 cells per well in a 96-well plate were transfected using electroporation with 1,000 nM of antisense oligonucleotide. After a treatment period of approximately 24 hours, RNA was isolated from the cells and Factor 7 mRNA levels were measured by real-time RT-PCR, as described herein. Factor 7 mRNA levels were adjusted according to total RNA content as measured by RIBOGREEN®. Results are presented in Table 17 as percent inhibition of Factor 7 mRNA, relative to untreated control cells. ISIS 407939 is the first oligonucleotide in Table 17 to which the shortmers were compared, and is marked by an asterisk (*).

[2] = tested on: human Factor 7 mRNA; assay: Antisense inhibition of human Factor 7 mRNA in HepB3 cells, 50 nM antisense oligonucleotide, lipofectin
Summary of the method: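 Percent inhibition of Factor 7 mRNA, relative to untreated control, comes from real-time RT-PCR with RIBOGREEN normalization, using primer probe set RTS 2927 in some runs. RNA was taken roughly 24 h after lipofectin delivery of 50 nM oligonucleotide into HepB3 cells.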

[3] = tested on: human Factor 7 mRNA; assay: Dose-dependent antisense inhibition of human Factor 7 in HepB3 cells, lipofectin; details: approximately 16 hours
Experimental: Cells were plated at a density of 4,000 cells per well and treated with lipofectin reagent with 3.125 nM, 6.25 nM, 12.5 nM, 25 nM, 50 nM, and 100 nM concentrations of antisense oligonucleotide, as indicated in Table 3. After a treatment period of approximately 16 hours, RNA was isolated from the cells and Factor 7 mRNA levels were measured by real-time RT-PCR, as described herein. Human Factor 7 primer probe set RTS 2927 (forward sequence: […], incorporated herein as SEQ ID NO: 164; reverse sequence: […], incorporated herein as SEQ ID NO: 165; probe sequence: TGGGTGGTCTCCGCGGCCX, incorporated herein as SEQ ID NO: 166) was used to measure mRNA levels. Factor 7 mRNA levels were adjusted according to total RNA content as measured by RIBOGREEN®. Results are presented as percent inhibition of Factor 7, relative to untreated control cells.
Cells were plated at a density of 4,000 cells per well and transfected using lipofectin reagent with 6.25 nM, 12.5 nM, 25.0 nM, 50.0 nM, and 100.0 nM concentrations of antisense oligonucleotide, as indicated in Table 7. After a treatment period of approximately 16 hours, RNA was isolated from the cells and Factor 7 mRNA levels were measured by real-time RT-PCR, as described herein. Human Factor 7 primer probe set RTS 2927 was used to measure mRNA levels. Factor 7 mRNA levels were adjusted according to total RNA content as measured by RIBOGREEN®. Results are presented as percent inhibition of Factor 7, relative to untreated control cells.
Cells were plated at a density of 4,000 cells per well and transfected using lipofectin reagent with 3.125 nM, 6.25 nM, 12.5 nM, 25 nM, 50 nM, and 100 nM concentrations of antisense oligonucleotide, as specified in Table 14. After a treatment period of approximately 16 hours, RNA was isolated from the cells and Factor 7 mRNA levels were measured by quantitative real-time PCR. Human Factor 7 primer probe set RTS 2927 was used to measure mRNA levels. Factor 7 mRNA levels were adjusted according to total RNA content, as measured by RIBOGREEN®. Results are presented as percent inhibition of Factor 7, relative to untreated control cells.

Substance	% Inhibition [1]	other results
435501 (antisense eT*eA*d[5mC]*dT*dG*dG*dG*dA*dG*dA*d[5mC]*d[5mC]*e[5mC]*eT) [compound 435501]	51%	
435684 (antisense eA*eG*d[5mC]*dA*dG*d[5mC]*dG*d[5mC]*dG*dA*dT*dG*eT*e[5mC]) [compound 435684]	56%	
435833 (antisense eA*eG*dA*d[5mC]*dA*d[5mC]*dT*dT*dG*dA*dG*dA*eG*e[5mC]) [compound 435833]	24%	
435805 (antisense eT*eG*dA*dA*dT*dT*dA*d[5mC]*dT*dG*dA*dA*e[5mC]*e[5mC]) [compound 435805]	0%	
435767 (antisense e[5mC]*eA*d[5mC]*d[5mC]*dA*dA*dG*dT*dT*dT*dA*dT*eG*eG) [compound 435767]	0%	
435699 (antisense eG*e[5mC]*d[5mC]*d[5mC]*d[5mC]*dA*dG*d[5mC]*dT*dG*dA*d[5mC]*eG*eA) [compound 435699]	48%	
435637 (antisense eT*eG*dA*dA*dG*d[5mC]*d[5mC]*d[5mC]*dA*dA*dG*d[5mC]*eA*eG) [compound 435637]	11%	
435688 (antisense eA*e[5mC]*d[5mC]*dA*d[5mC]*dA*dT*dG*dG*dT*d[5mC]*dA*eG*eT) [compound 435688]	0%	
435766 (antisense eG*e[5mC]*dA*d[5mC]*d[5mC]*dT*dG*d[5mC]*dA*dG*d[5mC]*d[5mC]*eA*eG) [compound 435766]	51%	
435641 (antisense eG*eG*dT*d[5mC]*d[5mC]*d[5mC]*d[5mC]*dA*dT*d[5mC]*dA*d[5mC]*eT*eG) [compound 435641]	51%	
435810 (antisense e[5mC]*eT*dG*dA*dG*dG*dG*dA*dA*dT*dG*dT*eT*eG) [compound 435810]	1%	
435848 (antisense eT*eG*dG*d[5mC]*d[5mC]*dA*d[5mC]*dT*dG*d[5mC]*d[5mC]*dT*e[5mC]*eA) [compound 435848]	32%	
435662 (antisense eT*eG*dG*dA*dT*dA*dT*dT*d[5mC]*dA*dA*d[5mC]*eT*eG) [compound 435662]	19%	
435741 (antisense eA*eG*dG*dG*dT*dT*d[5mC]*dA*dT*dT*dT*d[5mC]*eA*eG) [compound 435741]	6%	
435823 (antisense eT*eG*dA*dG*dT*d[5mC]*d[5mC]*d[5mC]*dA*dG*dG*d[5mC]*eT*eG) [compound 435823]	41%	
435760 (antisense eT*e[5mC]*dT*dT*dG*dG*dG*dT*dG*dT*dG*dG*eA*eT) [compound 435760]	17%	
435634 (antisense eT*eG*dA*dA*dA*dT*d[5mC]*dT*d[5mC]*dT*dG*d[5mC]*eA*eG) [compound 435634]	5%	
435669 (antisense eG*eG*dA*d[5mC]*d[5mC]*dT*dG*d[5mC]*d[5mC]*dA*dT*dG*eG*eA) [compound 435669]	36%	
435787 (antisense eG*eA*dG*dT*dG*dT*dG*dA*dG*dG*d[5mC]*dT*eT*e[5mC]) [compound 435787]	34%	
435846 (antisense eT*eG*dG*dA*dG*dA*dG*dA*d[5mC]*d[5mC]*dA*dA*eT*eG) [compound 435846]	7%	

Substance	% Inhibition [1]	other results
435482 (antisense eT*eG*dG*dG*dT*d[5mC]*dA*dT*d[5mC]*dA*dG*d[5mC]*e[5mC]*eG) [compound 435482]	62%	
435493 (antisense eG*eA*d[5mC]*d[5mC]*d[5mC]*dT*dG*dG*dT*dG*dT*dA*e[5mC]*eA) [compound 435493]	58%	
435818 (antisense eG*eT*d[5mC]*dA*dT*d[5mC]*d[5mC]*dT*dT*dG*dT*d[5mC]*eT*eG) [compound 435818]	43%	
435731 (antisense eG*eT*dG*dA*dG*dA*dG*d[5mC]*dT*dA*dA*dA*e[5mC]*eA) [compound 435731]	11%	
435773 (antisense e[5mC]*eA*dG*dG*dG*dA*dA*d[5mC]*dA*d[5mC]*d[5mC]*d[5mC]*eT*e[5mC]) [compound 435773]	57%	
435765 (antisense e[5mC]*eA*dA*dA*dG*dT*dT*d[5mC]*dT*d[5mC]*dT*dG*e[5mC]*e[5mC]) [compound 435765]	1%	
435751 (antisense e[5mC]*eT*dT*dG*d[5mC]*d[5mC]*dA*dG*dG*dT*d[5mC]*d[5mC]*eT*e[5mC]) [compound 435751]	28%	
435844 (antisense eT*eG*dG*d[5mC]*d[5mC]*dA*dG*dT*dG*dG*d[5mC]*d[5mC]*eT*e[5mC]) [compound 435844]	30%	
435661 (antisense eG*eG*dA*d[5mC]*dA*d[5mC]*d[5mC]*d[5mC]*d[5mC]*dG*dT*d[5mC]*eT*eG) [compound 435661]	18%	
435504 (antisense eA*eT*dG*dT*dA*d[5mC]*dT*dG*dG*dG*dA*dG*eA*e[5mC]) [compound 435504]	8%	
435478 (antisense eG*eA*dG*dG*d[5mC]*dA*d[5mC]*dA*d[5mC]*dT*dG*dG*eT*e[5mC]) [compound 435478]	43%	
435747 (antisense eA*eT*dA*dT*d[5mC]*dA*dT*dT*dG*dA*d[5mC]*dA*eA*eG) [compound 435747]	0%	
435797 (antisense eA*eA*dT*d[5mC]*dT*dT*dG*dG*d[5mC]*d[5mC]*d[5mC]*d[5mC]*eT*e[5mC]) [compound 435797]	16%	
435790 (antisense eA*eT*dG*dA*d[5mC]*d[5mC]*dA*dT*d[5mC]*d[5mC]*dT*d[5mC]*eA*eA) [compound 435790]	1%	
435679 (antisense e[5mC]*eG*d[5mC]*dT*dG*dA*dG*dG*dT*d[5mC]*dG*dT*eG*e[5mC]) [compound 435679]	62%	
435804 (antisense e[5mC]*eA*dG*dG*dG*dA*d[5mC]*dT*d[5mC]*dT*d[5mC]*dA*eG*e[5mC]) [compound 435804]	26%	
435488 (antisense e[5mC]*eA*dG*dT*d[5mC]*d[5mC]*dT*dG*dG*dG*dT*d[5mC]*eA*eT) [compound 435488]	17%	
435666 (antisense eG*eG*dT*dT*dT*dG*d[5mC]*dT*dG*dG*d[5mC]*dA*eT*eT) [compound 435666]	71%	
435768 (antisense eG*e[5mC]*d[5mC]*dT*dG*dG*dA*dT*dG*d[5mC]*dT*dG*eG*eT) [compound 435768]	75%	
416508 (antisense e[5mC]*eG*eA*eG*eT*dT*d[5mC]*dT*dG*d[5mC]*dA*dG*dG*dA*dG*e[5mC]*eG*eG*e[5mC]*e[5mC]) [compound 416508]		% Inhibition of human Factor 7 mRNA levels ([2]; gapmers targeted to nucleobases 4868 to 4899 of SEQ ID NO: 1, Table 8): 67%; % Inhibition ([2]; lipofectin, 50 nM antisense oligonucleotide, approximately 24 hours, Factor 7 mRNA by real-time RT-PCR (RTS 2927), relative to untreated control): 67%; percent inhibition of Factor 7 ([3]; Table 7, 6.25 nM): 42%; percent inhibition of Factor 7 ([3]; Table 7, 12.5 nM): 51%; percent inhibition of Factor 7 ([3]; Table 7, 25.0 nM): 71%; percent inhibition of Factor 7 ([3]; Table 7, 50.0 nM): 79%; percent inhibition of Factor 7 ([3]; Table 7, 100.0 nM): 89%
